Test results as given in publication PMC2229623 (The Journal of General Physiology, 2004).

Key:
[1] = target: T1, CFTR (Homo sapiens, UniProt P13569); assay: Apical Cl− current in CFTR-expressing FRT cells; format: cell-based; conditions: for % inhibition at 50 μM: apical membrane Cl− current, FRT cells; for Ki: Ki is compound concentration giving 50% inhibition of apical membrane Cl− current in CFTR-expressing FRT cells
[2] = target: MDR-1 (Homo sapiens, UniProt P08183); assay: Rhodamine 123 uptake in cells overexpressing MDR-1; format: cell-based; conditions: 100 μM
[3] = target: T1, CFTR; conditions: read-out: concentration giving 50% inhibition of CFTR Cl− channel function; intact cells, depending on cell type and membrane potential; ref Ma et al., 2002a; Taddei et al., 2004; cited from earlier work
[4] = tested on: CFTR; format: in vivo; conditions: 100 μM in all solutions; mice

T1 sequence (P13569 whole entry): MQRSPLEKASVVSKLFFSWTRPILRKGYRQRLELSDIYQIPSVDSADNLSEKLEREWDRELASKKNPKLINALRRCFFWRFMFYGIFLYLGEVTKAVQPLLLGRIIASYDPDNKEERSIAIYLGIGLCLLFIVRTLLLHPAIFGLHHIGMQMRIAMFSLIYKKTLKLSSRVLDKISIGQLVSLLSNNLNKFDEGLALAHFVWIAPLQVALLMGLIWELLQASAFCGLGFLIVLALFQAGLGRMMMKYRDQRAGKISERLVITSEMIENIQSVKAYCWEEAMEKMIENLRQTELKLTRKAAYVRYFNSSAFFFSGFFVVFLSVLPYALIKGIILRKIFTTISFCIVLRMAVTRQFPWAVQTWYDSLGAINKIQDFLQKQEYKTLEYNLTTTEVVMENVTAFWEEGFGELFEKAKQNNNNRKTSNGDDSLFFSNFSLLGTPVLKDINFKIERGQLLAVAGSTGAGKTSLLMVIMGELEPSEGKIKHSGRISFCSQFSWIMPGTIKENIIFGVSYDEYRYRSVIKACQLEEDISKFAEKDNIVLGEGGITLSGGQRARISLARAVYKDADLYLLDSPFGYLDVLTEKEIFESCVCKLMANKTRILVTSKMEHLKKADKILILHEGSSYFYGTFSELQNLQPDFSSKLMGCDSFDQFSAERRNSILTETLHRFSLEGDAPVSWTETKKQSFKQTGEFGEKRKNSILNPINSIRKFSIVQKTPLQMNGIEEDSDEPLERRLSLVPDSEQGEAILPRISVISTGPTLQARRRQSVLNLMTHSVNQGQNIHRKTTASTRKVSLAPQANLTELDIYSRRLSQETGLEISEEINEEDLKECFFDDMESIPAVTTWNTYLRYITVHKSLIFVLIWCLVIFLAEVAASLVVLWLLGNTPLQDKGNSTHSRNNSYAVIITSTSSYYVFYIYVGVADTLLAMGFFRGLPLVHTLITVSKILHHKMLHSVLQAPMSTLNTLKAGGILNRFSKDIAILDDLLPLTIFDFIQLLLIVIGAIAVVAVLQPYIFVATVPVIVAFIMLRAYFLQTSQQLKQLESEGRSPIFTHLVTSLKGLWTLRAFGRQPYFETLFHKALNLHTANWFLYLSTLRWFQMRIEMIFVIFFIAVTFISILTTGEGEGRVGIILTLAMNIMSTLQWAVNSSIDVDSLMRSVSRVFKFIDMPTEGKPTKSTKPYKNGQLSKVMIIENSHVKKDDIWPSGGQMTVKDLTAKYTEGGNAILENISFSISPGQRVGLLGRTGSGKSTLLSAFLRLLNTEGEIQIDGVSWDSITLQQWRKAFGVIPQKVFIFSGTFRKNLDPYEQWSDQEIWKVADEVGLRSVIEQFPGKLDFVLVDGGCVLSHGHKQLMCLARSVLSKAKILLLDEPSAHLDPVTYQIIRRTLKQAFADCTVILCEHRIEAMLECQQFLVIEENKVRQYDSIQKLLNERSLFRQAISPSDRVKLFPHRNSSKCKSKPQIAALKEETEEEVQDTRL
Chain of MDR-1 (P08183 whole entry): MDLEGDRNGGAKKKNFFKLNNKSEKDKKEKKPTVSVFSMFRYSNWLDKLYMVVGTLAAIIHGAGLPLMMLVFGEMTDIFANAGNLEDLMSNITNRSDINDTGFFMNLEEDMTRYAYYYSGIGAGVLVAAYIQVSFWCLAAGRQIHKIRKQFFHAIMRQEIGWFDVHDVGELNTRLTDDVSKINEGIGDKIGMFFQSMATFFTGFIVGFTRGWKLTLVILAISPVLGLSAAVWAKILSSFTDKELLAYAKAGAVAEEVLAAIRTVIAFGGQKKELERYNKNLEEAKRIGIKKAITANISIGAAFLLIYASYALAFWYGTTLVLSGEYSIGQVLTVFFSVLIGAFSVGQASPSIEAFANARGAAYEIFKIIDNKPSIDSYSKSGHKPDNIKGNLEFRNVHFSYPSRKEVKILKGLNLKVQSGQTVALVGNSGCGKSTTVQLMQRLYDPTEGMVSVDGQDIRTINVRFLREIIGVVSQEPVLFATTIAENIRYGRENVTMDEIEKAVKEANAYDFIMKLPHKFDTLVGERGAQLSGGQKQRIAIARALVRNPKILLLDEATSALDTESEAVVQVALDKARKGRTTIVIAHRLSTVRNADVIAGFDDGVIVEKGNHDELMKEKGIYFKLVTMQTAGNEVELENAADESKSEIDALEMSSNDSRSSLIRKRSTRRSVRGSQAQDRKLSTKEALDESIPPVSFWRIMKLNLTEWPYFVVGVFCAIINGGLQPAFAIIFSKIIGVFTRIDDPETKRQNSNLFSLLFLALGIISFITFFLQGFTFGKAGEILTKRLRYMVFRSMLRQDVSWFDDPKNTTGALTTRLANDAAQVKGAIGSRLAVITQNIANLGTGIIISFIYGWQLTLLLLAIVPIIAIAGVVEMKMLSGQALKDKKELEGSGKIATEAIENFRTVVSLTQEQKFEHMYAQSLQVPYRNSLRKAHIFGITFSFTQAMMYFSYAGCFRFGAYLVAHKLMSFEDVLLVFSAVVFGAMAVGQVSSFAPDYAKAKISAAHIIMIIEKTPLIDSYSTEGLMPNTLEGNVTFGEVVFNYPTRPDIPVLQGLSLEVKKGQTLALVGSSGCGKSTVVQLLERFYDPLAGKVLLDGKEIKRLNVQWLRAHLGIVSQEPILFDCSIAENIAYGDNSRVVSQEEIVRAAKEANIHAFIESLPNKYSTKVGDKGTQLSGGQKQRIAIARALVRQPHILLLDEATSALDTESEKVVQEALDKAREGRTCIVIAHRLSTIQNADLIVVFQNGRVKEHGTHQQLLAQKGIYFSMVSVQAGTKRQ

SMILES | Ki [1] | other results
O=C(COc1ccc2ccccc2c1)NN=Cc1cc(Br)c(O)c(Br)c1 [AceH-402] | 17 µM | % inhibition at 50 μM [1]: 86%
O=C(CNc1ccc2cc3ccccc3cc2c1)NN=Cc1cc(Br)c(O)c(Br)c1O [GlyH-124] | 25 to 50 µM | 
Cc1ccc(NCC(=O)NN=Cc2cc(Br)c(O)c(Br)c2O)cc1 [GlyH-116] | 10 µM | 
O=C(NNCc1cc(Br)c(O)c(Br)c1O)C(=O)Nc1ccc2ccccc2c1 [OxaH-303] | 10 µM | % inhibition at 50 μM [1]: 70%
COc1ccc(CCN(C)CCCC(C#N)(c2ccc(OC)c(OC)c2)C(C)C)cc1OC (stereo not shown) [verapamil] |  | increase of rhodamine 123 incorporation [2]: greater than fivefold
O=C(NNC(=O)c1cc(Br)c(O)c(Br)c1)C(=O)Nc1ccc2ccccc2c1 [OxaH-204] | > 50 µM | 
O=C(CNc1ccc(Cl)cc1)NN=Cc1cc(Br)c(O)c(Br)c1 [GlyH-114] | 5 µM | 
CC(=NNC(=O)CNc1ccc2ccccc2c1)c1cc(Br)c(O)c(Br)c1 [GlyH-109] | 4.7 µM | 
O=C(O)c1ccc(/C=C2\SC(=S)N(c3cccc(C(F)(F)F)c3)C2=O)cc1 [CFTRinh-172] |  | IC50 [3]: 0.3 to 3 µM
CC(=NNC(=O)C(=O)Nc1ccc2ccccc2c1)c1cc(Br)c(O)c(Br)c1O [OxaH-112] | 3 µM | 
O=C(NN=Cc1cc(Br)c(O)c(Br)c1O)C(=O)Nc1ccc2ccccc2c1 [OxaH-203] | > 50 µM | 
O=C(CNc1ccc(Cl)cc1)NN=Cc1cc(Br)c(O)c(Br)c1O [GlyH-115] | 6.7 µM | 
O=S(=O)(O)c1cc(N=C=S)ccc1C=Cc1ccc(N=C=S)cc1S(=O)(=O)O [DIDS] |  | inhibition of the (CFTR-independent) hyperpolarization produced by low Cl− [4]: partial inhibition
O=C(COc1ccc2ccccc2c1)NN=Cc1cc(Br)c(O)c(Br)c1O [AceH-401] | 21 µM | % inhibition at 50 μM [1]: 84%
COc1c(Br)cc(C=NNC(=O)CNc2ccc3ccccc3c2)c(O)c1Br [GlyH-103] | 20 µM | % inhibition at 50 μM [1]: 56%
O=C(NNCc1cc(Br)c(O)c(Br)c1)C(=O)Nc1ccc2ccccc2c1 [OxaH-304] | 12 µM | % inhibition at 50 μM [1]: 78%
O=C(CNc1ccc2ccccc2c1)NNC(=O)c1cc(Br)c(O)c(Br)c1 [GlyH-202, 3,5-Dibromo-4-hydroxy-[2-(2-naphthalenamine)aceto] Benzoic Acid Hydrazide] | 22 µM | % inhibition at 50 μM [1]: 57%
O=C(CNc1ccc(Cl)cc1)NN=Cc1ccc(O)cc1O [GlyH-123] | 25 to 50 µM | 
O=C(CNc1ccc2ccccc2c1)NN=Cc1ccc(Br)cc1 [GlyH-120] | 25 to 50 µM | 
O=C(CNc1cccc2ccccc12)NN=Cc1ccc(O)c(Br)c1 [GlyH-118] | 25 to 50 µM | 
O=C(CNc1ccc2cc3ccccc3cc2c1)NN=Cc1cc(Br)c(O)c(Br)c1 [GlyH-125] | 25 to 50 µM | 
Cc1ccccc1NCC(=O)NN=Cc1cc(Br)c(O)c(Br)c1O [GlyH-117] | 25 to 50 µM | 
